Data published in patent publication US20260091147A1, “METHOD FOR DETECTING INNATE IMMUNE ACTION IN VIVO USING GPR84-PET” (The Board of Trustees of the Leland Standford Junior …, priority 2023, published 2026).

Assays:
GPR84 [1] = biological target: GPR84 (Homo sapiens, UniProt Q9NQS5); experiment: In vitro autoradiography of human colon sections, active UC vs healthy; type: binding; set-up: from tissue; host or cells: human colon sections, active ulcerative colitis and matched healthy samples; settings: for tracer binding in active UC colon tissue vs matched healthy samples: 5 μm sections; for tracer signal in UC colon tissue after pre-blocking with GLPG1205: 1000× GLPG1205 by mass
Chain of GPR84 (Homo sapiens, UniProt Q9NQS5) (Q9NQS5 whole entry): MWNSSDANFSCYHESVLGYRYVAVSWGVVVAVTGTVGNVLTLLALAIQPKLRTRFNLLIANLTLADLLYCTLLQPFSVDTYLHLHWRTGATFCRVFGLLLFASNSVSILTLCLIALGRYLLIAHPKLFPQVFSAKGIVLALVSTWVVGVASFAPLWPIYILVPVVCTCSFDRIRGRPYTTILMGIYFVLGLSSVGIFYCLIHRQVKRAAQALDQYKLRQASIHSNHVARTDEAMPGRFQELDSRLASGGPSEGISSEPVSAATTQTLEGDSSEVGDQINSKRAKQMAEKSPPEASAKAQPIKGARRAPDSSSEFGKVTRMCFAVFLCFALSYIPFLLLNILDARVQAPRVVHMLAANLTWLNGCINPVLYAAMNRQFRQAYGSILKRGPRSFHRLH
Method: To investigate alterations in GPR84 mRNA expression under pro-inflammatory conditions, quantitative polymerase-chain reaction was performed using mouse brain and human monocyte-derived macrophage cells (hMDMs) treated with lipopolysaccharides (LPS) 24 hr prior to RNA extraction. [^11C]GLPG38 and [^18F]MGX-110S were made via [^11C]methylation of the desmethyl precursor and by copper mediated [^18F]fluorination of Bpin precursor respectively. Binding specificities of both tracers were assessed using human GPR84-stably-expressing human embryonic kidney cells (HEK-293) versus control HEK-293 cells. [^11C]GLPG38 binding was also assessed in hMDMs+/−treatment with LPS. Dynamic PET/CT imaging of healthy mice was commenced just prior to injection of [^11C]GLPG38 (100-150 μCi) or [^18F]MGX-110S (60-120 μCi) to determine biodistribution and kinetics. In vitro autoradiography (ARG) of human colon sections (5 μm) was conducted to test the ability of each tracer to detect innate immune activation in active UC.

GPR84 [2] = biological target: T1, GPR84 (Mus musculus, UniProt Q8CIM5); experiment: Ex vivo biodistribution (gamma counting) of GPR84 tracer in LPS- vs saline-treated mice; settings: LPS 10 mg/kg
T1 construct: tissue Jackson Laboratories; host or cells: female C57BL/6J mice (LPS, saline, EAE or naive): brain, spinal cord and peripheral organs
T1 sequence (Q8CIM5 whole entry): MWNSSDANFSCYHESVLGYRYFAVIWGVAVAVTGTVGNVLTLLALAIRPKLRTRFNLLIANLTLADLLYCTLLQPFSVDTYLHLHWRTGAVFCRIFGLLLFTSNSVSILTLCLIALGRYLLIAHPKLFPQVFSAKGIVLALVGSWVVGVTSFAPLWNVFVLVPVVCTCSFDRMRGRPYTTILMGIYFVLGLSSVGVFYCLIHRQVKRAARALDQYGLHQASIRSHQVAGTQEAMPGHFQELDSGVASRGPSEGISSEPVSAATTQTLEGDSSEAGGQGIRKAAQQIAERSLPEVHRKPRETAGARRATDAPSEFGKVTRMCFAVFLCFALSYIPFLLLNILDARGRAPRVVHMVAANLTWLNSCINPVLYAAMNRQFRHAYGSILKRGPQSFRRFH
Method: FIGS. 11A-11B show ex vivo biodistribution and autoradiography. […] At 20 min postinjection, animals were perfused with saline and tissues were collected, weighed, and gamma-counted. […] Statistical analysis was performed using “Unpaired t test with Welch correction”, *=P<0.05. […] Cb=cerebellum, Ctx=cortex, Str=striatum, H=hippocampus, Mb=midbrain, Ob=olfactory bulb, and BS=brain stem.
To determine KD of GLPG38, a competitive binding assay was performed using a membrane preparation from cells expressing GPR84-Gi in addition to [^3H]G9543, a known GPR84 antagonist. [^11C]GLPG38 was then radiosynthesized via [^11C]methylation of desmethyl precursor using [^11C]methyl iodide. […] Dynamic 60 min PET/CT imaging was performed 24 hr following LPS-administration using [^11C]GLPG38. Subsequently, mice were perfused with PBS to remove blood, and radioactive signal was assessed in CNS and peripheral tissues via gamma counting. Ex vivo autoradiography of sagittal mouse brain sections was conducted to obtain high resolution images of [^11C]GLPG38 binding. To investigate alterations in GPR84 mRNA expression, quantitative polymerase-chain reaction was performed using mouse brain tissue and human monocyte-derived macrophage cells stimulated with LPS 24 hr prior to RNA extraction.

GPR84 [3] = biological target: T1, GPR84; experiment: Dynamic PET/CT in EAE vs naive mice, spinal cord time activity curves; type: in vivo
Method: 10-week old female C57BL/6 mice were induced with EAE using kits from Hooke Laboratories Inc. (cat #EK2110; Lawrence, MA). After anesthetizing mice with isoflurane gas (2.0-3.0% for induction and 1.5-2.5% for maintenance), they were inoculated with myelin oligodendrocyte glycoprotein (MOG35-55) in complete Freund's adjuvant (CFA) (0.2 mL per mouse, S.C.), followed by two pertussis toxin (PTX) injections (110 ng per injection, I.P., 1 and 24 h post-MOG injection). All mice were weighed and scored daily in the morning from day 8 onwards according to standard EAE scoring systems: 0, no paralysis; 1, loss of tail tone; 2, hind limb weakness or paresis; 3, hind limb paralysis; 4, complete hind leg and partial front leg paralysis. EAE mice were given supplemental food and fluids as necessary.
On days 15-16 after EAE induction, mice were catheterized and placed on the 4-mouse scanning bed of the Sofie GNEXT PET/CT scanner. Mice were injected with a radiotracer bolus of 130-170 μCi of ^18F-MGX-110S for a 60-min dynamic PET scan followed by CT. Scans were reconstructed from list mode into 19 frames (4×15 s, 4×60 s, 11×300 s) using OSEM3D reconstruction with 3 iterations and 24 subsets. Brain analysis was performed using a semi-automated brain atlas on VivoQuant software (2020 version) and spinal cords were manually drawn as previously described (JoVE).
(§1) Radiosynthesis of ^18F-MGX-110S was achieved by copper-mediated fluorination of a Bpin precursor in a mixture of dimethylacetamide at 130° C. for 20 min. C57BL/6 mice were induced with EAE using myelin oligodendrite glycoprotein (MOG35-55) emulsified in complete Freund's adjuvant and weighed/scored daily for disease severity. Expression of Gpr84 and Tspo was assessed in EAE (n=10-16 mice of low and high disease severities) versus naïve mice (n=5) using quantitative polymerase chain reaction (qPCR) of CNS tissues. In vivo kinetics, spatial distribution, and BBB permeability of ^18F-MGX-110S was assessed via 60-min dynamic PET/CT imaging of naïve C57BL/6 (n=3) and high scoring EAE mice (n=3). Ex vivo gamma counting of tissues of interest was conducted using naïve (n=8) and EAE (n=8) mice 60-min post-tracer injection. Lastly, EAE (n=3) and naïve (n=4) mice were injected with ^18F-GE180 and dissected 60 min later for gamma counting as a comparison.

GPR84 [4] = biological target: T1, GPR84; experiment: Ex vivo gamma counting of CNS tissues in EAE vs naive mice
Method: After the PET/CT scan the mice were perfused under 3% isoflurane and organs of interest were dissected out, weighed, and placed on a Hidex gamma counter to quantify the percent of injected dose per gram of tissue. After gamma counting, CNS tissues were frozen and sectioned on a cryotome at 40 μm and placed on a phosphor storage screen overnight. The images were read using a Typhoon imager 18 h after the screen was exposed to the tissues. Additional mice were also injected off of the PET/CT scanner and perfused at 60-min post-injection to increase the N for the ex vivo gamma counting and autoradiography data.
as §1, with “Ex vivo gamma counting of tissues of interest was conducted using naïve (n=8) and EAE (n=8) mice 60-min post-tracer injection. Lastly, EAE (n=3) and naïve (n=4) mice were injected with ^18F-GE180 and dissected 60 min later for gamma counting as a comparison.” left out

Structure (SMILES)	tracer binding in active UC colon tissue vs matched healthy samples (GPR84 [1])	tracer signal in UC colon tissue after pre-blocking with GLPG1205 (GPR84 [1])	gamma counting signal in brain, LPS-injected vs vehicle mice (GPR84 [2]; p=0.0023)	gamma counting tracer binding in adipose tissue, LPS vs vehicle mice (GPR84 [2]; p=0.007)	cervical/thoracic spinal cord signal at 60 min, EAE mice (GPR84 [3]; high scoring EAE, n=3) [% ID/g]	lumbar spinal cord signal at 60 min, EAE mice (GPR84 [3]; high scoring EAE, n=3, p=0.0206) [% ID/g]	cervical/thoracic spinal cord signal at 60 min, naive mice (GPR84 [3]; n=3) [% ID/g]	lumbar spinal cord signal at 60 min, naive mice (GPR84 [3]; n=3) [% ID/g]	signal-to-background ratio (EAE-to-naive) in lumbar spinal cord relative to 18F-GE180 (GPR84 [4]; 60 min post injection) [fold]	tracer binding in cervical/thoracic and lumbar spinal cord, EAE vs naive (GPR84 [4]; both p<0.01)
Cc1cc2c(cc1O[11CH3])CCn1c-2c(C)c(OC[C@@H]2COCCO2)cc1=O [[^11C]GLPG38]	marked increase of binding	markedly attenuated	increased signal in the brain	significant increase in tracer binding						
O=c1nc(OC[C@@H]2COCCO2)cc2n1CCc1cc([18F])ccc1-2 [^18F-MGX-110S]	marked increase of binding	markedly attenuated			4.54±1.16	7.08±1.05	3.21±0.42	4.13±0.79	2.5	significantly elevated tracer binding
